Measured values reported in US20050208511A1, “DMBT1 as a clinical marker and uses thereof” (priority 2003, published 2005).

How the values were obtained:
DMBT1 [1] = test: Northern analysis of DMBT1 expression in rat uterus; type: in vivo, Sprague Dawley rats; conditions: for DMBT1 expression on coadministration with estrone: 70 μg/kg/day estrone + 1 mg/kg/day compound, relative to estrone alone (FIG. 3A); for DMBT1 expression increase in uterine tissue: compound alone, oral, three days, estrone 70 μg/kg/day, others 1 mg/kg/day (FIG. 2)
Experimental: (§1) Ten groups of 22-day-old female Sprague Dawley rats (three animals per group) were used to evaluate the effects of estrone, tamoxifen, raloxifene, and ICI 182780 on DMBT1 expression in the uterus. The following groups of rats were treated for three days as follows:
(§2) All treatments were delivered orally in 0.5% Methocel. After treatment the animals were euthanized and the uteri were collected, weighed, frozen in liquid nitrogen, and stored at −20° C. RNA was purified from the frozen uteri using 1.0 mL of TRIzol Reagent (Invitrogen) and a PowerGen 25 tissue homogenizer (Fisher Scientific), according to the manufacturer's instructions.
Northern analysis was performed to determine gene expression, including DMBT1 expression, in the uterus of control and treated rats. For gel electrophoresis, samples containing 2 μg of total RNA in a volume of 2 μL of water were added to 6 microliters of formaldehyde loading dye (Ambion) and incubated at 65° C. for 20 minutes. One microliter of a 0.1 mg/ml ethidium bromide solution was then added to each sample. […] The RNA was transferred to a Hybond-N membrane (Amersham) for […] by capillary transfer blotting, using 10×SSC (0.15 M Sodium citrate, pH 7.0, 1.5 M NaCl), after which the membranes were stained with ethidium bromide, destained with water, and photographed for lane loading comparison. The membranes were then air-dried and kept at room temperature until hybridization.
A glycerol stock of a bacterial clone carrying a plasmid (pINCY) containing the rat ebnerin (DMBT1) gene was obtained from Incyte Genomics (ID#: 0000101155000011). […] One colony was selected and used to inoculate 200 mL of Lennox L Broth (Sigma)+50 μg/mL ampicillin (Sigma). The liquid culture was grown overnight at 37° C. and the bacteria were collected by centrifugation. Purification of plasmid DNA was carried out using a QIAfilter plasmid maxi kit (QIAgen) according to the manufacturer's instructions.
Purified pINCY/DMBT1 was treated with the restriction enzymes EcoRI and NotI (Promega) for the preparation and isolation of a 1,174 bp DNA fragment containing the ebnerin probe (DMBT1). The products of the restriction enzyme reaction were separated by electrophoresis on a 1× TAE, 1% SeaKem Gold Agarose Reliant gel, and the band corresponding to the 1.174 kb DNA ebnerin clone was excised. The ebnerin DNA probe was purified from the gel slice using a QIAquick Gel Extraction Kit (QIAgen) according to the manufacturer's instructions. Bound DNA was eluted from the QIAgen column with 50 μL of elution buffer. The ebnerin DNA probe in the eluate was quantified by comparison to a DNA standard by gel electrophoresis. The ebnerin DNA probe was then diluted to a final concentration of 25 ng/μL.
Random-primed probe was made from 25 ng of the purified ebnerin DNA using a DECAprime II kit (Ambion) and Redivue α-^32P dATP (10 mCi/mL) (Amersham) according to the manufacturer's instructions, with the exception that the reaction was incubated for 30 minutes at 37° C. After adding EDTA to stop the reaction, the labeled probe was purified using a QIAquick Nucleotide Removal Kit (QIAgen) according to the manufacturer's instructions, with the final volume of eluted probe being 50 μL. Two microliters were counted in a scintillation counter to ensure optimal radionuclide incorporation (>2×10^6 cpm/μL).
The blot membrane as described in section A was wet in 2×SSC buffer (Sigma) for 15 minutes, then pre-hybridized in 10 mL RapidHyb (Amersham) at 65° C. for 20 minutes. The probe was boiled for 10 minutes, and 25 μL was added to 10 mL of RapidHyb, pre-warmed to 65° C. The blot membrane was added to the diluted probe solution and incubated, with rotation, in a hybridization oven for approximately 10 hours.
The membrane was removed from the probe-containing solution and rinsed twice with 2×SSPE +0.5% SDS+0.5% pyrophosphate at room temperature, and then washed once, with gentle agitation, for 30 minutes at room temperature in the same solution.

uterus = test: uterine weight in 22-day-old female rats; type: in vivo, Sprague Dawley rats; conditions: oral
Experimental: as §1, §2
In rats, uteri increase in size under the proliferative influence of estrogen, and this increase in size can be measured by weighing the tissues.
Administration of the treatments and collection of tissue samples were carried out according to the procedure described in Example 2. RNA was purified, blotted and hybridized to radioactively labeled rat ebnerin cDNA as in described in Example 2.

luminal epithelium = luminal epithelium thickening in rat uterus sections; type: in vivo, Wistar rats; conditions: OVX rats dosed six weeks, compared to sham and ovariectomized control; estrogen = ethinyl estradiol
Experimental: Mature, six week-old ovariectomized or sham-operated Wistar rats (Charles River) were dosed with ethinyl estradiol, tamoxifen or raloxifene for six weeks. Uteri were removed, sectioned for immunohistochemical analysis for DMBT1 expression using a polyclonal goat antibody against the human protein.
Tissues were trimmed and processed for paraffin embedding according to conventional methods. Five-micron sections were cut, mounted onto SuperFrost Plus+(Fisher Scientific, Pittsburgh, Pa.) microscopic slides and dried overnight. The protocols for routine single immunohistochemistry (IHC) have been described previously (D'Andrea et al., 2001, Biotechnic Histochem. 76:97-106). Briefly, tissue sections on microscopic slides were dewaxed and re-hydrated. Slides were microwaved for 5 min in Target buffer (Dako, Carpenturia, Calif.), cooled, placed in phosphate-buffered saline (PBS, pH 7.4) and treated with 3% (v/v) H2O2 for 10 min at room temperature. All incubations (30 min each) and washes were performed at room temperature. Normal rabbit blocking serum (Vector Labs, Burlingame, Calif.) was placed on all slides for 10 min. After a brief rinse in PBS, sections were treated with goat polyclonal DMBT1 primary antibody (1:25, Hypromatrix, Worcester, Mass.). Slides were then washed in PBS and treated with rabbit anti-goat biotinylated secondary antibodies (Vector Labs). After washing in PBS, the avidin-biotin-horseradish peroxidase complex reagent (HRP, Vector Labs) was added. All slides were washed and treated with 3,3′-diaminobenzidine (DAB, Biomeda, Foster City, Calif.) two times for 5 min each, rinsed in distilled water, and counterstained with hematoxylin.

monkey endometrium = test: DNA microarray gene expression profile (regulated gene identifiers) in endometrium of ovariectomized monkeys; type: in vivo, cynomolgus monkeys (Macaca fascicularis); conditions: Ovx/E2 vs Ovx/Placebo
Source text: (§3) Adult female cynomolgus monkeys (Macaca fascicularis) were obtained from Covance Research Products. Following one complete menstrual cycle and in the follicular phase of the subsequent menstrual cycle, the animals were ovariectomized by a mid-ventral laparotomy. Ovariectomized (OVX) animals were subject to estrogen treatment after the fourth week following ovariectomy.
(§4) Following this period, the OVX monkeys were euthanized and tissue biopsies were taken from endometria of the monkeys treated with estrogen and the placebo. (Details of the endometrial features in OVX monkeys and OVX+estrogen-treated monkeys is described in Example 4.) The biopsies were placed in sterile containers, snap frozen immediately in liquid nitrogen, and stored at −80° C. until processed. Total RNA was prepared from each endometrial tissue biopsy, as described below.
Total RNA was prepared from endometrial tissue biopsies (approximately 50 mg each) using RNAzol™ (Tel-Test, Friendswood, Tex.), as follows. Two milliliters of RNAzol™ were used per 100 mg of tissue. Tissues were homogenized for 2 to 3 minutes using a Tissue Tearor homogenizer (Model No. 985-370; BioSpec Products, Bartlesville, Okla.), then transferred to a glass mortar bowl. The tissues were ground with at least 10 strokes of the pestle until a clear suspension was obtained. […]

DMBT1 [2] = test: DNA microarray analysis of DMBT1 expression in endometrium of ovariectomized monkeys; type: in vivo, cynomolgus monkeys (Macaca fascicularis); conditions: OVX monkeys, estrogen implant 19 days vs Ovx/Placebo, endometrium, microarray
Source text: as §3, §4
Total RNA was prepared from endometrial tissue biopsies (approximately 50 mg each) using RNAzol™ (Tel-Test, Friendswood, Tex.), as follows. Two milliliters of RNAzol™ were used per 100 mg of tissue. Tissues were homogenized for 2 to 3 minutes using a Tissue Tearor homogenizer (Model No. 985-370; BioSpec Products, Bartlesville, Okla.), then transferred to a glass mortar bowl. The tissues were ground with at least 10 strokes of the pestle until a clear suspension was obtained. The homogenates were transferred to a polypropylene conical flask, to which 0.1 mL of chloroform per 1 mL of homogenate was added. The mixtures were then shaken vigorously for 1 minute. The suspensions were then transferred to a 2 mL microcentrifuge tube and centrifuged for 15. minutes at 12000 g and at 4° C. in a fixed angle rotor using a Biofuge 17R centrifuge (Baxter, Deerfield, Ill.). The aqueous phase was carefully transferred to a new microcentrifuge tube. An equal volume of isopropanol was added to the aqueous phase, mixed gently, and incubated at 4° C. for 15 minutes. RNA was pelleted by centrifuging the mixture for 15 minutes at 12000 g and at 4° C. as described above. The supernatant was removed and the pellet washed with 75% (v/v) ethanol (Pharmco Products, Brookfield, Conn.), followed by centrifugation at 7500 g for 8 minutes at 4° C. The supernatant was removed, and then the RNA pellet was air-dried briefly and resuspended in RNase-free water (Promega, Madison, Wis.). The samples were then treated with Amplification Grade RNase-free DNase I to remove any residual DNA (Invitrogen, Carlsbad, Calif.). Specifically, twenty micrograms of RNA were treated in a reaction volume of 0.1 mL, containing 1× DNase I reaction buffer and 10 units of DNase I. The reaction continued at room temperature for 15 minutes. […]

endometrium = test: average endometrial thickness in treated monkeys; type: in vivo, cynomolgus monkeys (Macaca fascicularis); conditions: 19 days
Source text: as §3
Animals and treatment were the same as Example 1 with the following exceptions. To study the effect of PRMs on the endometrium and gene expression, groups of three ovariectomized (OVX) monkeys were given an estrogen implant (E2), plus daily oral doses of the following PRMs for 19 days: mifepristone at 10 mg/kg/d; 17N11-DE (17β-N-substituted-11β-dimethylaminophenyl-estra-4,9-dien-3-one) 1.0, 3.0, or 10 mg/kg/d; 17N11-PE (17β-N-substituted-11β-piperidinylphenyl-estra-4,9-dien-3-one) at 1.0, 3.0, or 10 mg/kg/d. A placebo (0.5% methylcellulose) was administered as a control. 17N11-DE and 17N11-PE are two PRMs that have been described in PCT Publication No. WO 99/62928. Tissue samples were taken from endometria and myometria for histological analysis.

DMBT1 [3] = test: quantitative RT-PCR of DMBT1 in uterus of ovariectomized rats; type: in vivo, Wistar rats; conditions: OVX rats, co-treatment with ethinyl estradiol (FIG. 3B)
Experimental: Six weeks old ovariectomized Wistar rats (Charles River, Wilmington, Mass.) were dosed for either one day or six weeks with vehicle or test compounds. All treatments were delivered orally, once daily, in 0.5% methylcellulose or sesame oil. After treatment, the uteri were removed, total RNA was purified from the tissues using TRIzol reagent (Invitrogen, Carlsbad, Calif.) as directed by the manufacturer.
Quantitative reverse transcription-polymerase chain reactions (RT-PCR) of DMBT1 from rat RNA samples were carried out using a One-Step RT-PCR Master Mix Kit (Applied Biosystems, Foster City, Calif.) and an ABI Prism 7000 Sequence Detection System (Applied Biosystems), as described by the manufacturer. Commercially available primers and FAM-labeled MGB probes for human and rat DMBT1 (catalog numbers Hs00244827_ml and Rn00575705_ml, respectively) were obtained from Applied Biosystems (Foster City, Calif.). Messenger RNA levels were normalized against 18S ribosomal RNA levels determined using primers and a VIC- and TAMRA-labeled probe from the same vendor.

[4] = estrogen-stimulated endometrium (C)

Compound: C[C@]12CC[C@@H]3c4ccc(O)cc4C[C@@H](CCCCCCCCC[S+]([O-])CCCC(F)(F)C(F)(F)F)[C@H]3[C@@H]1CC[C@@H]2O (some centres unmarked) [ICI 182780]
- DMBT1 expression on coadministration with estrone (DMBT1 [1]; 1 mg/kg/day): moderately lowered
- DMBT1 expression on coadministration with estrone (DMBT1 [1]; listed as ICI 182,780, 1 mg/kg/day): inhibited
- DMBT1 expression increase in uterine tissue (DMBT1 [1]): undetectable levels
- uterine weight on co-treatment with estrone (uterus; 70 μg/kg/day estrone + 1 mg/kg/day compound, three days (FIG. 1)): approximately between that of estrone (E) and ICI 182780 (1) treatments alone
- uterine weight (uterus; compound alone, three days, estrone 70 μg/kg/day, others 1 mg/kg/day, vs control (FIG. 1)): significant decrease in uterine weight

Compound: estrogen
- thickening of the luminal epithelium (luminal epithelium): expected thickening of the luminal epithelium
- PR gene regulation by estrogen (monkey endometrium): threefold up-regulation
- insulin-like growth factor binding protein 3 gene regulation by estrogen (monkey endometrium): tenfold down-regulation
- expression of DMBT1 up-regulated (DMBT1 [2]): 37 fold
- Endometrial Thickness (mm) (endometrium; Ovx/E2/Vehicle): 3.03 mm
- endometrial thickness relative to chemically castrated endometrium (B) (endometrium; [4]): 2.5 times
- endometrial thickness relative to ovariectomized control (A) (endometrium; [4]): seven to eight times thicker

Compound: CC(=O)O[C@]1(C(C)=O)CC[C@H]2[C@@H]3C[C@H](C)C4=CC(=O)CC[C@]4(C)[C@H]3CC[C@@]21C [medroxyprogesterone acetate]
- effect on ethinyl estradiol-induced increase in DMBT1 mRNA levels (DMBT1 [3]): blocked the increase in mRNA levels in a dose-dependent manner

Compound: C[C@]12CC[C@@H]3c4ccc(O)cc4CC[C@H]3[C@@H]1CCC2=O [estrone]
- DMBT1 expression increase in uterine tissue (DMBT1 [1]): ~5 fold
